From patent US11247965B2 (VenatoRx Pharmaceuticals, Inc., priority 2017, dated 2022) come the findings set out here.

Data set [1] relates to HBV replication in HepAD38 cells. Kind of data set: Anti-HBV activity in HepAD38 cells, extracellular HBV DNA by QPCR. The format is cell-based, HBV (genotype D, serotype ayw). To be noted: Hepatitis B virus, HePAD38, 168 h, read-out: Anti-HBV EC50, HepAD38 cells, extracellular HBV DNA by QPCR, 7 days of incubation. The method, boiled down: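 HepAD38 cells (HepG2 with tet-repressible HBV genotype D genome) seeded overnight, tetracycline removed, then treated 7 days with compounds (half-log dilutions, 30 μM–10 nM; 1:200 from DMSO). Supernatant HBV DNA quantified by QPCR against standard curve; % inhibition vs vehicle, EC50 by 4-parameter fit.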

Data set [2] is described as follows: In vitro cytotoxicity, MTT cell viability assay in HepG2 cells. The format is cell-based. Particulars: human, Cytotoxicity CC50. The method, boiled down:
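HepG2 seeded overnight, then 7-day compound exposure (30 μM–1.0 nM, half-log steps), 37 °C. MTT 3-4 h, DMSO solubilization, A492. % of vehicle → CC50, 4-PL fit.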
Background: Formazan colour is commonly taken as a measure of viable cells.

Structures are written as SMILES.

The EC50 is the concentration that produces a half-maximal response. As a reminder, the CC50 is the concentration that lowers cell viability or growth by half. Lower therefore signals harm at low concentration. `Cn1cc(NC(=O)c2ccc(F)c(C(F)(F)C(=O)N3[C@@H]4CC[C@H]3C[C@@H](O)C4)c2)cn1` [Example 180, 3-(1,1-difluoro-2-((1R,3r,5S)-3-hydroxy-8-azabicyclo[3.2.1]octan-8-yl)-2-oxoethyl)-4-fluoro-N-(1-methyl-1H-pyrazol-4-yl)benzamide]: the EC50 in data set [1] was in the range of 5 to 30 µM. Besides, the CC50 at 7 days in data set [2] is greater than 30 µM.
For `CC[C@H](C)NC(=O)C(F)(F)c1cc(C(=O)Nc2ccc(F)c(C)c2)cn1C` [Example 103, (S)-5-(2-(sec-butylamino)-1,1-difluoro-2-oxoethyl)-N-(4-fluoro-3-methylphenyl)-1-methyl-1H-pyrrole-3-carboxamide], in that order: less than 5 µM and 5 to 30 µM.
Turning to `Nc1nc2c(s1)CN(C(=O)C(F)(F)c1cc(C(=O)Nc3ccc(F)c(Cl)c3)ccc1F)CC2` [Example 279, 3-(2-(2-amino-6,7-dihydrothiazolo[5,4-c]pyridin-5(4H)-yl)-1,1-difluoro-2-oxoethyl)-N-(3-chloro-4-fluorophenyl)-4-fluorobenzamide], in data set [1], the concentration giving a half-maximal response (EC50) was less than 5 µM. In data set [2], this compound returned a CC50 at 7 days of 5 to 30 µM.
`CC(C)n1cc(NC(=O)c2ccc(F)c(C(F)(F)C(=O)N3[C@@H]4CC[C@H]3C[C@H](O)C4)c2)cn1` [Example 185, 3-(1,1-difluoro-2-((1R,3s,5S)-3-hydroxy-8-azabicyclo[3.2.1]octan-8-yl)-2-oxoethyl)-4-fluoro-N-(1-isopropyl-1H-pyrazol-4-yl)benzamide]: in data set [1], the EC50 is 5 to 30 µM. In addition, the CC50 at 7 days in data set [2] was greater than 30 µM.
As for `Cc1cc(NC(=O)c2ccc(Cl)c(C(F)(F)C(=O)N3CC=CCC3)c2)ccc1F` [Example 74, 4-chloro-3-(2-(3,6-dihydropyridin-1(2H)-yl)-1,1-difluoro-2-oxoethyl)-N-(4-fluoro-3-methylphenyl)benzamide], the EC50 in data set [1] is less than 5 µM. For the same compound, the CC50 at 7 days in data set [2] is 5 to 30 µM.
As to `Cc1cc(NC(=O)c2ccc(F)c(C(F)(F)C(=O)N3CC4CNCC4C3)c2)ccc1F` (stereo not shown) [Example 283, 3-(1,1-difluoro-2-(hexahydropyrrolo[3,4-c]pyrrol-2(1H)-yl)-2-oxoethyl)-4-fluoro-N-(4-fluoro-3-methylphenyl)benzamide], the EC50 in data set [1] was less than 5 µM. In data set [2], this compound had a cytotoxic concentration (CC50) at 7 days of 5 to 30 µM.
`Cc1cc(NC(=O)c2c(C)c(C(O)(C(=O)NC(C)(C)C)C(F)(F)F)c(C)n2C)ccc1F` (stereo not shown) [Example 131, 4-(3-(tert-butylamino)-1,1,1-trifluoro-2-hydroxy-3-oxopropan-2-yl)-N-(4-fluoro-3-methylphenyl)-1,3,5-trimethyl-1H-pyrrole-2-carboxamide]: the EC50 in data set [1] is 5 to 30 µM. In addition, the half-maximal cytotoxic concentration (CC50) at 7 days in data set [2] lay within 5 to 30 µM.
With `O=C(Nc1ccc(F)c(F)c1)c1ccc(F)c(C(F)(F)C(=O)N2CC[C@H](O)C2)c1` [Example 12, (S)-3-(1,1-difluoro-2-(3-hydroxypyrrolidin-1-yl)-2-oxoethyl)-N-(3,4-difluorophenyl)-4-fluorobenzamide], the EC50 in data set [1] fell in the range of 5 to 30 µM. This compound also yielded a CC50 at 7 days in data set [2] of 5 to 30 µM.
Regarding `Cc1cc(NC(=O)c2ccc(F)c(C(F)(F)C(=O)N3CCC(O)CC3)c2)ccc1F` [Example 29, 3-(1,1-difluoro-2-(4-hydroxypiperidin-1-yl)-2-oxoethyl)-4-fluoro-N-(4-fluoro-3-methylphenyl)benzamide], the EC50 in data set [1] was less than 5 µM. For the same compound, in data set [2], the CC50 at 7 days was greater than 30 µM.
For `Cc1cc(NC(=O)c2nn(C)cc2C(F)(F)C(=O)NC(C)(C)C)ccc1F` [Example 166, 4-(2-(tert-butylamino)-1,1-difluoro-2-oxoethyl)-N-(4-fluoro-3-methylphenyl)-1-methyl-1H-pyrazole-3-carboxamide], the EC50 in data set [1] lay in the range of 5 to 30 µM. In data set [2], the CC50 at 7 days was greater than 30 µM.
As for `Cc1cc(NC(=O)c2ccc(F)c(C(F)(F)C(=O)N3CCC(NS(C)(=O)=O)C(C)(C)C3)c2)ccc1F` (stereo not shown) [Example 286, 3-(2-(3,3-dimethyl-4-(methylsulfonamido)piperidin-1-yl)-1,1-difluoro-2-oxoethyl)-4-fluoro-N-(4-fluoro-3-methylphenyl)benzamide], the EC50 in data set [1] is less than 5 µM. The same compound showed a CC50 at 7 days in data set [2] of 5 to 30 µM.
For `Cc1cc(NC(=O)c2ccc(F)c(C(F)(F)C(=O)N3CCC(NC(=O)CN4CCC(O)CC4)C(C)(C)C3)c2)ccc1F` (stereo not shown) [Example 301, 3-(1,1-difluoro-2-(4-(2-(4-hydroxypiperidin-1-yl)acetamido)-3,3-dimethylpiperidin-1-yl)-2-oxoethyl)-4-fluoro-N-(4-fluoro-3-methylphenyl)benzamide], in that order: less than 5 µM and 5 to 30 µM.
For `CC(C)(CO)NC(=O)C(F)c1cc(C(=O)Nc2ccc(F)c(F)c2)ccc1F` (stereo not shown) [Example 31, N-(3,4-difluorophenyl)-4-fluoro-3-(1-fluoro-2-((1-hydroxy-2-methylpropan-2-yl)amino)-2-oxoethyl)benzamide], in that order: 5 to 30 µM and 5 to 30 µM.
On to `Cc1cc(NC(=O)c2cc(C(F)(F)C(=O)NC(C)(C)C)n(C)c2C)ccc1F` [Example 106, 5-(2-(tert-butylamino)-1,1-difluoro-2-oxoethyl)-N-(4-fluoro-3-methylphenyl)-1,2-dimethyl-1H-pyrrole-3-carboxamide], for which the EC50 in data set [1] is less than 5 µM. Also, the half-maximal cytotoxic concentration (CC50) at 7 days in data set [2] lay in the range of 5 to 30 µM.
Turning to `Cc1cc(NC(=O)c2cc(F)cc(C(F)(F)C(=O)N3CCC(O)CC3)c2)ccc1F` [Example 93, 3-(1,1-difluoro-2-(4-hydroxypiperidin-1-yl)-2-oxoethyl)-5-fluoro-N-(4-fluoro-3-methylphenyl)benzamide], in data set [1], the EC50 is less than 5 µM. For the same compound, the 50% cytotoxic concentration (CC50) at 7 days in data set [2] was 5 to 30 µM.
Regarding `CCC(C)(C)NC(=O)C(F)(F)c1cc(C(=O)Nc2ccc(F)c(F)c2)ccc1F` [Example 19, 3-(1,1-difluoro-2-oxo-2-(tert-pentylamino)ethyl)-N-(3,4-difluorophenyl)-4-fluorobenzamide], the EC50 in data set [1] is less than 5 µM. In data set [2], this compound displayed a CC50 at 7 days of 5 to 30 µM.
For `COc1ccc(C(=O)Nc2ccc(F)c(C)c2)cc1C(F)(F)C(=O)N1CCC(O)CC1` [Example 94, 3-(1,1-difluoro-2-(4-hydroxypiperidin-1-yl)-2-oxoethyl)-N-(4-fluoro-3-methylphenyl)-4-methoxybenzamide], the 50% effective concentration (EC50) in data set [1] was less than 5 µM. The compound further came in with a CC50 at 7 days in data set [2] greater than 30 µM.
The matching figures for `O=C(Nc1ccnc(Cl)c1)c1ccc(F)c(C(F)(F)C(=O)N2CCC(O)CC2)c1` [Example 167, N-(2-chloropyridin-4-yl)-3-(1,1-difluoro-2-(4-hydroxypiperidin-1-yl)-2-oxoethyl)-4-fluorobenzamide]: 5 to 30 µM and 5 to 30 µM.
As for `O=C(Nc1ccc(F)cn1)c1ccc(Cl)c(C(F)(F)C(=O)N2CCC(O)CC2)c1` [Example 38, 4-chloro-3-(1,1-difluoro-2-(4-hydroxypiperidin-1-yl)-2-oxoethyl)-N-(5-fluoropyridin-2-yl)benzamide], in data set [1], the EC50 is greater than 30 µM. In data set [2], this compound displayed a CC50 at 7 days greater than 30 µM.
As to `O=C(Nc1ccc(F)c(Cl)c1)c1ccc(F)c(C(F)(F)C(=O)N2[C@@H]3CC[C@H]2C[C@@H](O)C3)c1` [Example 170, N-(3-chloro-4-fluorophenyl)-3-(1,1-difluoro-2-((1R,3r,5S)-3-hydroxy-8-azabicyclo[3.2.1]octan-8-yl)-2-oxoethyl)-4-fluorobenzamide], the EC50 in data set [1] was less than 5 µM. This compound came in with a CC50 at 7 days in data set [2] of 5 to 30 µM.
Regarding `Cc1cc(NC(=O)c2ccc(F)c(C(F)(F)C(=O)NC3(C#N)CC3)c2)ccc1F` [Example 236, 3-(2-((1-cyanocyclopropyl)amino)-1,1-difluoro-2-oxoethyl)-4-fluoro-N-(4-fluoro-3-methylphenyl)benzamide], the EC50 in data set [1] is 5 to 30 µM. The compound also registered a CC50 at 7 days in data set [2] greater than 30 µM.
`O=C(Nc1ccnc(Cl)c1)c1ccc(F)c(C(F)(F)C(=O)N2CCC(O)C(F)(F)C2)c1` (stereo not shown) [Example 195, N-(2-chloropyridin-4-yl)-3-(2-(3,3-difluoro-4-hydroxypiperidin-1-yl)-1,1-difluoro-2-oxoethyl)-4-fluorobenzamide]: the EC50 in data set [1] is less than 5 µM. Besides, in data set [2], the CC50 at 7 days is less than 5 µM.
For the compound `Cc1cc(NC(=O)c2ccc(F)c(C(F)(F)C(=O)N3CCC(N4CCOCC4)CC3)c2)ccc1F` [Example 267, 3-(1,1-difluoro-2-(4-morpholinopiperidin-1-yl)-2-oxoethyl)-4-fluoro-N-(4-fluoro-3-methylphenyl)benzamide], the EC50 in data set [1] was in the range of 5 to 30 µM. In data set [2], this compound came in with a CC50 at 7 days of 5 to 30 µM.
As for `CN(CCCO)C(=O)C(F)(F)c1cc(C(=O)Nc2ccc(F)c(F)c2)ccc1F` [Example 47, 3-(1,1-difluoro-2-((3-hydroxypropyl)(methyl)amino)-2-oxoethyl)-N-(3,4-difluorophenyl)-4-fluorobenzamide], the EC50 in data set [1] lay within 5 to 30 µM. In addition, the CC50 at 7 days in data set [2] is greater than 30 µM.
Consider `O=C(Nc1ccc(F)cc1Cl)c1ccc(Cl)c(C(F)(F)C(=O)N2CCC(O)CC2)c1` [Example 41, 4-chloro-N-(2-chloro-4-fluorophenyl)-3-(1,1-difluoro-2-(4-hydroxypiperidin-1-yl)-2-oxoethyl)benzamide], for which, in data set [1], the EC50 lay in the range of 5 to 30 µM. Moreover, the CC50 at 7 days in data set [2] is greater than 30 µM.
For the compound `Cc1cc(NC(=O)c2ccc(F)c(C(F)(F)C(=O)N3CC[C@H](N)C3)c2)ccc1F` [Example 234, (S)-3-(2-(3-aminopyrrolidin-1-yl)-1,1-difluoro-2-oxoethyl)-4-fluoro-N-(4-fluoro-3-methylphenyl)benzamide], the EC50 in data set [1] lay in the range of 5 to 30 µM. In data set [2], this compound returned a CC50 at 7 days greater than 30 µM.
